Experimental data taken from the supplement of paper PMC10627819.
In brackets after ≈: the same amount, converted by molar mass.

Assays:
S. aureus DSM 20231 [1] = system: S. aureus DSM 20231
B. subtilis 168 [2] = system: B. subtilis 168
S. pneumoniae D39V [3] = system: S. pneumoniae D39V
S. aureus Newman [4] = system: S. aureus Newman
S. aureus DSM 20231 [5] = assay: fitness (endpoint OD595 vs no drug) (fraction); higher = more growth
How it was run: (§1)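 Fitness was defined as the optical density at the transition into stationary phase relative to the robust mean of no-drug control wells. Values were capped at 1. Cultures were started at OD595 0.01 in 384-well plates (30 µl, or 55 µl for S. pneumoniae) in TSB, LB Lennox or CY at 37 °C. OD595 was recorded every 30 min over 14 h, with the first reading subtracted as background.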

B. subtilis 168 [6] = assay: as above
How it was run: as §1

S. pneumoniae D39V [7] = assay: as above
How it was run: as §1

S. aureus Newman [8] = assay: as above
How it was run: as §1

CC(=O)Oc1ccccc1C(=O)O [Acetylsalicylic acid]
Settings | MIC [µg/mL]
B. subtilis 168 [2] | 2000 (≈ 11100 µM)
S. aureus DSM 20231 [1] | 1000 (≈ 5550 µM)
S. aureus Newman [4] | 2000 (≈ 11100 µM)
S. pneumoniae D39V [3] | 2000 (≈ 11100 µM)

fitness
Settings | B. subtilis 168 [6] | S. aureus DSM 20231 [5] | S. pneumoniae D39V [7]
250 µg/mL | 0.948 | 0.991 | 0.967
500 µg/mL | 0.911 | 0.888 | 0.965
1000 µg/mL | 0.745 | 0.522 | 0.924

N#CC(C#N)=NNc1cccc(Cl)c1 [CCCP]
Settings | MIC [µg/mL]
B. subtilis 168 [2] | 2.3 (≈ 11.2 µM)
S. pneumoniae D39V [3] | 4.5 (≈ 22 µM)

S. pneumoniae D39V [7]
Settings | fitness
0.575 µg/mL | 0.981
1.15 µg/mL | 0.968
2.3 µg/mL | 0.942

CO/N=C(\C(=O)N[C@@H]1C(=O)N2C(C(=O)O)=C(COC(C)=O)CS[C@H]12)c1csc(N)n1 [Cefotaxime]
Settings | MIC [µg/mL]
S. aureus DSM 20231 [1] | 0.173 (≈ 0.38 µM)
S. aureus Newman [4] | 2.5 (≈ 5.49 µM)
S. pneumoniae D39V [3] | 0.008 (≈ 0.0176 µM)

Settings | fitness
B. subtilis 168 [6], 0.0625 µg/mL | 0.477
B. subtilis 168 [6], 0.125 µg/mL | 0.338
B. subtilis 168 [6], 0.25 µg/mL | 0.205
B. subtilis 168 [6], 0.5 µg/mL | 0.113
B. subtilis 168 [6], 1 µg/mL | 0.0654
B. subtilis 168 [6], 2 µg/mL | 0.0508
S. aureus DSM 20231 [5], 0.039 µg/mL | 0.935
S. aureus DSM 20231 [5], 0.078 µg/mL | 0.869
S. aureus DSM 20231 [5], 0.155 µg/mL | 0.951
S. aureus DSM 20231 [5], 0.156 µg/mL | 0.844
S. aureus DSM 20231 [5], 0.31 µg/mL | 0.825
S. aureus DSM 20231 [5], 0.312 µg/mL | 0.676
S. aureus DSM 20231 [5], 0.62 µg/mL | 0.669
S. aureus Newman [8], 0.039 µg/mL | 0.829
S. aureus Newman [8], 0.078 µg/mL | 0.786
S. aureus Newman [8], 0.156 µg/mL | 0.729
S. aureus Newman [8], 0.312 µg/mL | 0.462
S. aureus Newman [8], 0.625 µg/mL | 0.0743
S. aureus Newman [8], 1.25 µg/mL | 0.022
S. aureus Newman [8], 2.5 µg/mL | 0.021
S. pneumoniae D39V [7], 0.0018 µg/mL | ≥ 1
S. pneumoniae D39V [7], 0.0035 µg/mL | 0.998
S. pneumoniae D39V [7], 0.007 µg/mL | 0.83

CO/N=C(\C(=O)N[C@@H]1C(=O)N2C(C(=O)O)=C(COC(N)=O)CS[C@H]12)c1ccco1 [Cefuroxime]
Settings | MIC [µg/mL]
B. subtilis 168 [2] | 2 (≈ 4.71 µM)
S. aureus DSM 20231 [1] | 0.25 (≈ 0.589 µM)
S. aureus Newman [4] | 0.25 (≈ 0.589 µM)
S. pneumoniae D39V [3] | 0.25 (≈ 0.589 µM)

B. subtilis 168 [6]
Settings | fitness
0.195 µg/mL | 0.319
0.39 µg/mL | 0.26
0.78 µg/mL | 0.212
1.562 µg/mL | 0.332
3.125 µg/mL | 0.264
6.25 µg/mL | 0.227

CN(C)[C@@H]1C(O)=C(C(N)=O)C(=O)[C@@]2(O)C(O)=C3C(=O)c4c(O)ccc(Cl)c4[C@@](C)(O)[C@H]3C[C@@H]12 [Chlortetracycline]
Settings | MIC [µg/mL]
B. subtilis 168 [2] | 0.4 (≈ 0.835 µM)
S. aureus DSM 20231 [1] | 0.15 (≈ 0.313 µM)
S. aureus Newman [4] | 0.095 (≈ 0.198 µM)
S. pneumoniae D39V [3] | 1.5 (≈ 3.13 µM)

fitness
Settings | 0.012 µg/mL | 0.0238 µg/mL | 0.024 µg/mL | 0.0475 µg/mL | 0.048 µg/mL | 0.095 µg/mL | 0.19 µg/mL
B. subtilis 168 [6] | – | – | – | 0.895 | – | 0.8 | 0.524
S. aureus DSM 20231 [5] | 0.793 | – | 0.441 | – | 0.073 | – | –
S. aureus Newman [8] | 0.683 | 0.237 | 0.402 | 0.0993 | 0.0667 | 0.0061 | –
S. pneumoniae D39V [7] | 0.857 | – | 0.703 | – | 0.526 | – | –

O=C(O)c1cn(C2CC2)c2cc(N3CCNCC3)c(F)cc2c1=O [Ciprofloxacin]
Settings | MIC [µg/mL]
S. aureus DSM 20231 [1] | 0.312 (≈ 0.942 µM)
S. aureus Newman [4] | 0.156 (≈ 0.471 µM)
S. pneumoniae D39V [3] | 1 (≈ 3.02 µM)

fitness
Settings | 0.0098 µg/mL | 0.0195 µg/mL | 0.0375 µg/mL | 0.039 µg/mL | 0.075 µg/mL | 0.078 µg/mL | 0.15 µg/mL | 0.156 µg/mL | 0.312 µg/mL
B. subtilis 168 [6] | 0.871 | 0.777 | – | 0.135 | – | – | – | – | –
S. aureus DSM 20231 [5] | – | – | 1 | – | 0.978 | 0.899 | 0.77 | 0.754 | 0.456
S. aureus Newman [8] | – | – | 0.801 | – | 0.597 | 0.708 | 0.0387 | 0.267 | 0.0879

COc1cccc2c1C(=O)c1c(O)c3c(c(O)c1C2=O)C[C@@](O)(C(=O)CO)C[C@@H]3O[C@H]1C[C@H](N)[C@H](O)[C@H](C)O1 [Doxorubicin]
Settings | MIC [µg/mL]
B. subtilis 168 [2] | 5 (≈ 9.2 µM)
S. aureus DSM 20231 [1] | 2.78 (≈ 5.11 µM)
S. aureus Newman [4] | 2.78 (≈ 5.11 µM)
S. pneumoniae D39V [3] | 1.2 (≈ 2.21 µM)

fitness
Settings | 0.25 µg/mL | 0.5 µg/mL | 0.625 µg/mL | 1 µg/mL | 1.25 µg/mL | 2.5 µg/mL
B. subtilis 168 [6] | – | – | 0.946 | – | 0.918 | 0.816
S. aureus DSM 20231 [5] | – | – | 0.967 | – | 0.907 | 0.827
S. aureus Newman [8] | – | – | 0.896 | – | 0.791 | 0.68
S. pneumoniae D39V [7] | 0.86 | 0.903 | – | 0.781 | – | –

C[C@H]1c2cccc(O)c2C(=O)C2=C(O)[C@]3(O)C(=O)C(C(N)=O)=C(O)[C@@H](N(C)C)[C@@H]3[C@@H](O)[C@@H]21 [Doxycycline]
Settings | MIC [µg/mL]
B. subtilis 168 [2] | 0.08 (≈ 0.18 µM)
S. aureus DSM 20231 [1] | 0.034 (≈ 0.0765 µM)

fitness
Settings | 0.0155 µg/mL | 0.02 µg/mL | 0.031 µg/mL | 0.04 µg/mL | 0.062 µg/mL | 0.08 µg/mL
B. subtilis 168 [6] | – | 0.876 | – | 0.754 | – | 0.457
S. pneumoniae D39V [7] | 0.789 | – | 0.73 | – | 0.59 | –

C[C@@H]1O[C@@H]1P(=O)(O)O [Fosfomycin]
Settings | MIC [µg/mL]
B. subtilis 168 [2] | 12.5 (≈ 90.5 µM)
S. aureus DSM 20231 [1] | 3.5 (≈ 25.4 µM)
S. aureus Newman [4] | 3.5 (≈ 25.4 µM)
S. pneumoniae D39V [3] | 6.25 (≈ 45.3 µM)

Settings | fitness
B. subtilis 168 [6], 1.562 µg/mL | 0.712
B. subtilis 168 [6], 3.124 µg/mL | 0.594
B. subtilis 168 [6], 6.248 µg/mL | 0.422
S. aureus DSM 20231 [5], 0.781 µg/mL | 0.875
S. aureus DSM 20231 [5], 1.562 µg/mL | 0.693
S. aureus DSM 20231 [5], 3.124 µg/mL | 0.535
S. aureus Newman [8], 0.781 µg/mL | 0.686
S. aureus Newman [8], 1.562 µg/mL | 0.485
S. aureus Newman [8], 3.124 µg/mL | 0.123
S. pneumoniae D39V [7], 1.25 µg/mL | 0.966
S. pneumoniae D39V [7], 2.5 µg/mL | 0.895
S. pneumoniae D39V [7], 5 µg/mL | 0.716

Cc1ncc([N+](=O)[O-])n1CCO [Metronidazole]
Settings | MIC [µg/mL]
B. subtilis 168 [2] | 5 (≈ 29.2 µM)
S. aureus DSM 20231 [1] | 3 (≈ 17.5 µM)
S. aureus Newman [4] | 3 (≈ 17.5 µM)
S. pneumoniae D39V [3] | 10 (≈ 58.4 µM)

fitness
Settings | 0.625 µg/mL | 0.781 µg/mL | 1.25 µg/mL | 1.562 µg/mL | 2.5 µg/mL | 3.124 µg/mL | 5 µg/mL
B. subtilis 168 [6] | 0.955 | – | 0.946 | – | 0.94 | – | –
S. aureus DSM 20231 [5] | ≥ 1 | – | ≥ 1 | – | ≥ 1 | – | –
S. aureus Newman [8] | ≥ 1 | ≥ 1 | ≥ 1 | ≥ 1 | ≥ 1 | 0.999 | –
S. pneumoniae D39V [7] | – | – | ≥ 1 | – | ≥ 1 | – | 0.997
